Source: ChEMBL document CHEMBL4507259 (2021)

How the values were obtained:
[1] = target: Melatonin receptor type 1B (Homo sapiens) (UniProt P49286); test: MT2 (ML1B) (h) CEREP ligand profiling; conditions: filed as agonist, Compound concentration 10.0 uM
[2] = target: 5-hydroxytryptamine receptor 4 (Homo sapiens) (UniProt Q13639); test: 5-HT4e (h) CEREP ligand profiling; conditions: filed as antagonist, Compound concentration 10.0 uM
[3] = target: T1, Muscarinic acetylcholine receptor M5 (Homo sapiens) (UniProt P08912); test: M5 (h) CEREP ligand profiling; conditions: filed as antagonist, Compound concentration 10.0 uM
T1 sequence (whole entry): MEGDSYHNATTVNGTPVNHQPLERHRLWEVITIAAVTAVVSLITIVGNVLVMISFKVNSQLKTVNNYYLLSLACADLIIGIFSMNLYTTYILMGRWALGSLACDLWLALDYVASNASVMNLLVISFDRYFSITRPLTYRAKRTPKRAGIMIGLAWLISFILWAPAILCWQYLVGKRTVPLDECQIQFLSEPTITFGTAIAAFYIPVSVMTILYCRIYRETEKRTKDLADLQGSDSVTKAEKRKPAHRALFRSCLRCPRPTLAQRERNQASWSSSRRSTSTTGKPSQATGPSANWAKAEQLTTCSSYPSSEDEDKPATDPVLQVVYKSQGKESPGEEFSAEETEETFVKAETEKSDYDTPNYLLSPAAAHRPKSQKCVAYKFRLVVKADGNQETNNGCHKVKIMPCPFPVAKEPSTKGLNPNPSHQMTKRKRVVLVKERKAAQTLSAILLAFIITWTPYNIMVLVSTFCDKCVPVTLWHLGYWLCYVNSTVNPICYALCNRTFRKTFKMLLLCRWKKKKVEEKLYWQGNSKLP

[4] = target: Estrogen receptor (Homo sapiens) (UniProt P03372); test: Estrogen ER alpha (h) CEREP ligand profiling; conditions: filed as agonist, Compound concentration 10.0 uM
Sequence of Estrogen receptor (Homo sapiens) (P03372 whole entry): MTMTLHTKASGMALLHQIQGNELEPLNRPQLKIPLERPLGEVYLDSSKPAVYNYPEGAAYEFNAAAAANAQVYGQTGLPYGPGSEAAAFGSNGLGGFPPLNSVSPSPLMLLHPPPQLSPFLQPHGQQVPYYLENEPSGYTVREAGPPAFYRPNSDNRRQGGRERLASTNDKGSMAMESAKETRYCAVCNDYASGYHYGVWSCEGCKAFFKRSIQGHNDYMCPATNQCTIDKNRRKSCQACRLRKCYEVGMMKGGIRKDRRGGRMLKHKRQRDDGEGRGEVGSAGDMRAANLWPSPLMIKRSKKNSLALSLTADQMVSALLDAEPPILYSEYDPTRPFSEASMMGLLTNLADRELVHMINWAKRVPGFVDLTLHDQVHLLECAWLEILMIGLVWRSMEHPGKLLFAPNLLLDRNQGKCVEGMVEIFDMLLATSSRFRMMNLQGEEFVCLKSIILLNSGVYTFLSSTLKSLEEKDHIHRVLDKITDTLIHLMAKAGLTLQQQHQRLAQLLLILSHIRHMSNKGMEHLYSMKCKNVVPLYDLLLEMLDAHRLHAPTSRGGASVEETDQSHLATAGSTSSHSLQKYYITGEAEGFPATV

[5] = target: Endothelin-1 receptor (Homo sapiens) (UniProt P25101); test: ETA (h) CEREP ligand profiling; conditions: filed as agonist, Compound concentration 10.0 uM
[6] = target: Calcium-activated potassium channel (Homo sapiens) (UniProt Q92952+Q9UGI6+Q12791+O15554+Q9H2S1+A8MYU2); test: SKCa channel CEREP ligand profiling; assay type: protein assay; conditions: filed as antagonist; Compound concentration 10.0 uM
[7] = target: AP2-associated protein kinase 1 (Homo sapiens) (UniProt Q2M2I8); conditions: Compound concentration 1000.0 nM
Sequence of AP2-associated protein kinase 1 (Homo sapiens) (Q2M2I8 whole entry, looked up): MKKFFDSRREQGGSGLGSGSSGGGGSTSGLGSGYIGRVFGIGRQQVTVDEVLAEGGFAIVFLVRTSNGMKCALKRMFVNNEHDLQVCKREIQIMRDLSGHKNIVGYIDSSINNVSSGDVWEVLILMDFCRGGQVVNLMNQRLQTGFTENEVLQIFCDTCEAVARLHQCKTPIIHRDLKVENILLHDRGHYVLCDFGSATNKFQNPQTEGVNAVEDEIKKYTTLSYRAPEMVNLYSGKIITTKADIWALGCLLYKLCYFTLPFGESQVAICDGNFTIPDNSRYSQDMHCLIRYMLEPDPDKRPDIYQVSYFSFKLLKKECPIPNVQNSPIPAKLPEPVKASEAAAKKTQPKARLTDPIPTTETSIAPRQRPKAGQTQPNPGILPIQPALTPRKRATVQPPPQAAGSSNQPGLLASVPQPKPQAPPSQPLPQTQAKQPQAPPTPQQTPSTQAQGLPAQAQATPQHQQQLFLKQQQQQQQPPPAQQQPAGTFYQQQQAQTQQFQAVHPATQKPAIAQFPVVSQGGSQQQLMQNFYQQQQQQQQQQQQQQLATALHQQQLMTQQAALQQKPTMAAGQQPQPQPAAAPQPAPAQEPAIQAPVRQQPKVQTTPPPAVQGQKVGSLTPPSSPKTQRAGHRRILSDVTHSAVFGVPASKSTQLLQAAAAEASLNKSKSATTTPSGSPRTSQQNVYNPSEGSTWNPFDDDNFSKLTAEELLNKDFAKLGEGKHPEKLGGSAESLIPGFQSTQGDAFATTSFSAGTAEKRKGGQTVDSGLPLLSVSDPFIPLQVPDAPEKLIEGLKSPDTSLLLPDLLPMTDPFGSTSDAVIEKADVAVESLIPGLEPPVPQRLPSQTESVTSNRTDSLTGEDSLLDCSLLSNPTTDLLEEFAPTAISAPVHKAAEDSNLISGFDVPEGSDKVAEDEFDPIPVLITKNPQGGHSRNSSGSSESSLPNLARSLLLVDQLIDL

[8] = tested on: Tyrosine-protein kinase ABL1 (Homo sapiens), P00519 [M351T]; conditions: Compound concentration 1000.0 nM
[9] = target: Atypical kinase COQ8B, mitochondrial (Homo sapiens) (UniProt Q96D53); conditions: Compound concentration 1000.0 nM
[10] = target: ALK tyrosine kinase receptor (Homo sapiens) (UniProt Q9UM73); conditions: Compound concentration 1000.0 nM
[11] = target: Aurora kinase B (Homo sapiens) (UniProt Q96GD4); conditions: Compound concentration 1000.0 nM
Sequence of Aurora kinase B (Homo sapiens) (Q96GD4 whole entry): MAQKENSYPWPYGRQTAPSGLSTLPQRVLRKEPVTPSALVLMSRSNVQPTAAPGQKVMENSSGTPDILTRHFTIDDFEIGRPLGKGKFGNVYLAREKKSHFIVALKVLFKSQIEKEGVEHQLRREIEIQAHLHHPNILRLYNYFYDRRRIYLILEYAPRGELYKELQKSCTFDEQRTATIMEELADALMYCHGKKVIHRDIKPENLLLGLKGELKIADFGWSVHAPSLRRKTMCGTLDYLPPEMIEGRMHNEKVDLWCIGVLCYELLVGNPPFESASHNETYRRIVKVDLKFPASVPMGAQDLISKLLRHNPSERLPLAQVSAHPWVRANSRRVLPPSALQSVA

[12] = tested on: Serine/threonine-protein kinase B-raf (Homo sapiens), P15056 [V600E]; conditions: Compound concentration 1000.0 nM
[13] = target: Calcium/calmodulin-dependent protein kinase type II subunit beta (Homo sapiens) (UniProt Q13554); conditions: Compound concentration 1000.0 nM
Sequence of Calcium/calmodulin-dependent protein kinase type II subunit beta (Homo sapiens) (Q13554 whole entry): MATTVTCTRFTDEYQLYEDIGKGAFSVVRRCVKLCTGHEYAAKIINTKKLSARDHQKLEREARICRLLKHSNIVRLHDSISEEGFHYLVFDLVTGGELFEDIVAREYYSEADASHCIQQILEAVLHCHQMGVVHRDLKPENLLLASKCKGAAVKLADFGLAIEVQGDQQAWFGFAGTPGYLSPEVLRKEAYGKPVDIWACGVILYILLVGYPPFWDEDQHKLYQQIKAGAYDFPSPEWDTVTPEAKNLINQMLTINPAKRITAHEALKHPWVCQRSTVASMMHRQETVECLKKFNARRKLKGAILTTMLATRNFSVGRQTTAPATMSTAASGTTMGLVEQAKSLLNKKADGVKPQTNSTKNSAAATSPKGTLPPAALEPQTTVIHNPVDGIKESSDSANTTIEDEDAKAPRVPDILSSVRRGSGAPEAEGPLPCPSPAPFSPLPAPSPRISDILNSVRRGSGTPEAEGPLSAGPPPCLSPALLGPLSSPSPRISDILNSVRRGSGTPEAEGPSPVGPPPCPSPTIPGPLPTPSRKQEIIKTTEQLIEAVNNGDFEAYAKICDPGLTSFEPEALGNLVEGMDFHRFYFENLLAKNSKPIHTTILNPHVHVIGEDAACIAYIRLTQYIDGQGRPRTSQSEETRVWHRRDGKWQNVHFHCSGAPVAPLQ

[14] = target: Megakaryocyte-associated tyrosine-protein kinase (Homo sapiens) (UniProt P42679); conditions: Compound concentration 1000.0 nM
Sequence of Megakaryocyte-associated tyrosine-protein kinase (Homo sapiens) (P42679 whole entry): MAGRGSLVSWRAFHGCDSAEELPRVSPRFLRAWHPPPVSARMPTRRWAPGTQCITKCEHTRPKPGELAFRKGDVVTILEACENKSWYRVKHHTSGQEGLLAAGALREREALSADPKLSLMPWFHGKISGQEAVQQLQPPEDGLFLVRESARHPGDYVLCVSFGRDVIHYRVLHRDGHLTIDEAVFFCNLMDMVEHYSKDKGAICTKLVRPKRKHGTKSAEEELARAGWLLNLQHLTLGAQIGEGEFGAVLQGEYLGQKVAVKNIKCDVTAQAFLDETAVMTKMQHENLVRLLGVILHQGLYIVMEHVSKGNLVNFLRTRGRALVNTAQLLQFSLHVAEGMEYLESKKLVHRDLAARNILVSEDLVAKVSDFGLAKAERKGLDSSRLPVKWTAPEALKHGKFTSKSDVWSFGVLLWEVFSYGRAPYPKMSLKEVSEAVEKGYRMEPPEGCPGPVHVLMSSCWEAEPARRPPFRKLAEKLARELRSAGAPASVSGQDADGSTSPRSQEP

[15] = target: Serine/threonine-protein kinase DCLK3 (Homo sapiens) (UniProt Q9C098); conditions: Compound concentration 1000.0 nM
[16] = target: Dual specificity tyrosine-phosphorylation-regulated kinase 2 (Homo sapiens) (UniProt Q92630); conditions: Compound concentration 1000.0 nM
[17] = target: Ephrin type-B receptor 6 (Homo sapiens) (UniProt O15197); conditions: Compound concentration 1000.0 nM
[18] = target: Mitogen-activated protein kinase 4 (Homo sapiens) (UniProt P31152); conditions: Compound concentration 1000.0 nM
[19] = target: Fibroblast growth factor receptor 4 (Homo sapiens) (UniProt P22455); conditions: Compound concentration 1000.0 nM
[20] = target: Receptor-type tyrosine-protein kinase FLT3 (Homo sapiens) (UniProt P36888); conditions: Compound concentration 1000.0 nM
[21] = target: Hormonally up-regulated neu tumor-associated kinase (Homo sapiens) (UniProt P57058); conditions: Compound concentration 1000.0 nM
[22] = target: Interleukin-1 receptor-associated kinase 3 (Homo sapiens) (UniProt Q9Y616); conditions: Compound concentration 1000.0 nM
Sequence of Interleukin-1 receptor-associated kinase 3 (Homo sapiens) (Q9Y616 whole entry): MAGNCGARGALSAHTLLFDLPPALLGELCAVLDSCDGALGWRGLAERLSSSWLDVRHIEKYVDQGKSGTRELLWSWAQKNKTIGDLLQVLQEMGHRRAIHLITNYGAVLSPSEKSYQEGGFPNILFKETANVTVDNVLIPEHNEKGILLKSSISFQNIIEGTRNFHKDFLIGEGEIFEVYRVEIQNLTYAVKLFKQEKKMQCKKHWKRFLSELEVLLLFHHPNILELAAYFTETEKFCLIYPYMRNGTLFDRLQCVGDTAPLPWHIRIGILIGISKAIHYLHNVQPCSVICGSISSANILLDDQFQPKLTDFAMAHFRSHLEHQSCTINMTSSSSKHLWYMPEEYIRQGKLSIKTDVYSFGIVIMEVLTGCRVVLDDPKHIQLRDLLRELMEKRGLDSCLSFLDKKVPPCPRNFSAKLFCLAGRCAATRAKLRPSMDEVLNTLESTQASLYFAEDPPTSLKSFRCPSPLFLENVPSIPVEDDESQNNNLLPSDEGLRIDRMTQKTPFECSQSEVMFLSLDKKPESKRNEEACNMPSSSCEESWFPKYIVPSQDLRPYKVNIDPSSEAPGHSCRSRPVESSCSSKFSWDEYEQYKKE

[23] = target: MAP kinase-interacting serine/threonine-protein kinase 1 (Homo sapiens) (UniProt Q9BUB5); conditions: Compound concentration 1000.0 nM
[24] = target: Serine/threonine-protein kinase 24 (Homo sapiens) (UniProt Q9Y6E0); conditions: Compound concentration 1000.0 nM
Sequence of Serine/threonine-protein kinase 24 (Homo sapiens) (Q9Y6E0 whole entry, looked up, canonical isoform): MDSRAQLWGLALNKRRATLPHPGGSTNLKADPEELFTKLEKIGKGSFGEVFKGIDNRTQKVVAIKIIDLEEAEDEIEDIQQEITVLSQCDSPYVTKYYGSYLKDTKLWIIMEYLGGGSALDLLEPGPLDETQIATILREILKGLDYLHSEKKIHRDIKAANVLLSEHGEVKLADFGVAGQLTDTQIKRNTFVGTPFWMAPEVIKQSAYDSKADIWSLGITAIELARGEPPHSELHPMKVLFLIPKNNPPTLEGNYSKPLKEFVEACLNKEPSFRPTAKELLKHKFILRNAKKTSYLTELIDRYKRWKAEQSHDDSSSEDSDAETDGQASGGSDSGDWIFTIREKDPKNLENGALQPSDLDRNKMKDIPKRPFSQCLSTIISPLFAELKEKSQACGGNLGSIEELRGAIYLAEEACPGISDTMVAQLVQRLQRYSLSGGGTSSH

[25] = tested on: Phosphatidylinositol 4,5-bisphosphate 3-kinase catalytic subunit alpha isoform (Homo sapiens), P42336 [E542K]; conditions: Compound concentration 1000.0 nM
[26] = target: Receptor-interacting serine/threonine-protein kinase 4 (Homo sapiens) (UniProt P57078); conditions: Compound concentration 1000.0 nM
[27] = target: Uncharacterized serine/threonine-protein kinase SBK3 (Homo sapiens) (UniProt P0C264); conditions: Compound concentration 1000.0 nM
[28] = target: 5-hydroxytryptamine receptor 6 (Homo sapiens) (UniProt P50406); conditions: Compound concentration 10.0 uM
[29] = target: Histamine H2 receptor (Homo sapiens) (UniProt P25021); conditions: Compound concentration 10.0 uM
[30] = target: T2, Muscarinic acetylcholine receptor M2 (Homo sapiens) (UniProt P08172); conditions: Compound concentration 10.0 uM
T2 sequence (whole entry): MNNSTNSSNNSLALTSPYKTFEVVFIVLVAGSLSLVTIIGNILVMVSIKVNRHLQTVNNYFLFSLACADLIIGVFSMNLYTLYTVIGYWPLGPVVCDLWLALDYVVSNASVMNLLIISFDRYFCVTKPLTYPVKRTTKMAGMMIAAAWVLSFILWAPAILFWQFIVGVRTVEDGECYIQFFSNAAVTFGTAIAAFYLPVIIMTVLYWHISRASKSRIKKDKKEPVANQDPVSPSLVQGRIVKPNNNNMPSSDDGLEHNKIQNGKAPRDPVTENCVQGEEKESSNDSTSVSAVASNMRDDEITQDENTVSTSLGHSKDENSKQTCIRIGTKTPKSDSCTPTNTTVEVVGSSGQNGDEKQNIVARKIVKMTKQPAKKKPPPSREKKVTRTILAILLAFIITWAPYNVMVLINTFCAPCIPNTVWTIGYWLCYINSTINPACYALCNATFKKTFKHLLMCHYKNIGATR

[31] = species on record: Rattus norvegicus; conditions: Compound concentration 10.0 uM

Sequence of 5-hydroxytryptamine receptor 4 (Homo sapiens) (Q13639 whole entry): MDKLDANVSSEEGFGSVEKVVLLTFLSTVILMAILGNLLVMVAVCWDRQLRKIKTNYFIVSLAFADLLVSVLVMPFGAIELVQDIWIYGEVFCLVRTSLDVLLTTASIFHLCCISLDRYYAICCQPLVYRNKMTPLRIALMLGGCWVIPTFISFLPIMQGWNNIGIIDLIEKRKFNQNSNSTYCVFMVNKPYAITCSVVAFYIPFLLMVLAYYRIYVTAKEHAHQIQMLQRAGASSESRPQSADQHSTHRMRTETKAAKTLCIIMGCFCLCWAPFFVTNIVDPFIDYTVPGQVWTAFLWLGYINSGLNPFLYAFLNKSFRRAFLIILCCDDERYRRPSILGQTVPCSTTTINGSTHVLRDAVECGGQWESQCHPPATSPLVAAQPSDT
Sequence of Melatonin receptor type 1B (Homo sapiens) (P49286 whole entry): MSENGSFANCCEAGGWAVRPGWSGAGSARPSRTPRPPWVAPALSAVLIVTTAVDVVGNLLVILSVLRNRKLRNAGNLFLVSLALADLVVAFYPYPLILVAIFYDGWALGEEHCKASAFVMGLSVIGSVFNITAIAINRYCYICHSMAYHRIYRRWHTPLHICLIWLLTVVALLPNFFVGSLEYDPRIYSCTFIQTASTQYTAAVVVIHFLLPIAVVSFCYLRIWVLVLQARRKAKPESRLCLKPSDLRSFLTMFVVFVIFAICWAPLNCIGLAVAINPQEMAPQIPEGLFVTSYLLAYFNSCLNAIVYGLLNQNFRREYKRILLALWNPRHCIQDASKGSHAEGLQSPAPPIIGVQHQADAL

Compound | inhibition [1] [%] | inhibition [2] [%] | inhibition [3] [%] | inhibition [4] [%] | inhibition [5] [%] | inhibition [6] [%] | residual activity [7] [%] | residual activity [8] [%] | residual activity [9] [%] | residual activity [10] [%] | residual activity [11] [%] | residual activity [12] [%] | residual activity [13] [%] | residual activity [14] [%] | residual activity [15] [%] | residual activity [16] [%] | residual activity [17] [%] | residual activity [18] [%] | residual activity [19] [%] | residual activity [20] [%] | also measured
CNC(=O)Nc1ccc2c(c1)CC[C@@]21OC(=O)N(CC(=O)N(Cc2ccc(F)cc2)[C@@H](C)C(F)(F)F)C1=O [A-485] | 12 | 10 | 8 | 5 | 3 | 2 | 100 | 100 | 100 | 68 | 86 | 100 | 81 | 71 | 83 | 88 | 96 | 84 | 100 | 100 | residual activity [21]: 100%; residual activity [22]: 95%; residual activity [23]: 67%; residual activity [24]: 90%; residual activity [25]: 76%; residual activity [26]: 56%; residual activity [27]: 93%; inhibition [28]: 32.6%; inhibition [29]: 28.2%; inhibition [30]: -0.28%; inhibition [31]: 60%
CNC(=O)Nc1ccc2c(c1)[C@@]1(CC2)OC(=O)N(CC(=O)N(Cc2ccc(F)cc2)[C@@H](C)C(F)(F)F)C1=O [A-486] | 8 | 9 | -8 | -10 | -1 | -7 | 100 | 88 | 95 | 77 | 93 | 96 | 100 | 100 | 81 | 92 | 0 | 98 | 98 | 96 | residual activity [21]: 100%; residual activity [22]: 100%; residual activity [23]: 94%; residual activity [24]: 100%; residual activity [25]: 69%; residual activity [26]: 52%; residual activity [27]: 100%; inhibition [28]: 24.1%; inhibition [29]: 6.93%; inhibition [30]: 3.15%; inhibition [31]: 50.6%
